Experiment [1] deals with HEK293 clonal cell line overexpressing APOL1 G1. Put plainly: APOL1 G1 HEK293 cell rescue assay (Example B3). Type of experiment: cell-based. As to conditions: geometric mean of at least 2 runs, † = single run, ¥ = concentration at 50% rescue estimated (no sigmoidal curve). Put shortly:
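Rescue of cell death caused by APOL1 G1 overexpression was measured in a clonal HEK293 line. Compounds were tested in duplicate on one plate, and EC50s were geometric means across at least two runs on different days. Some values are estimated 50%-rescue concentrations where curve fitting failed.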

Experiment [2] concerns Trypanosoma brucei Lister 427 VSG221 with APOL1 G2 recombinant protein. The experiment in a line: APOL1 G2 trypanosome cell rescue assay (Example B5). It is filed as cell-based. As to conditions: geometric mean of at least 2 assay runs, † = single assay run. The gist of the method: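 Viability read by CellTiter-Glo luminescence after 20 h co-incubation (37° C, 5% CO2) of 250 trypanosomes/well in modified HMI-9 with test compound (duplicate 11-point, 2-fold dilutions, 0.4% DMSO) and APOL1 protein, […]. Protein: mature residues 28-398, E. coli inclusion-body refolded, tag cleaved, in DDM.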

Setting [3] is: Homo sapiens, HEK293, HEK293 clonal line overexpressing APOL1 G1.
Setting [4] is: Trypanosoma brucei, 20 h, read-out: APOL1 G2 Trypanosome Rescue EC50, Trypanosoma brucei Lister 427 VSG221 with APOL1 G2 recombinant protein, 20 hours, CellTiter-Glo.
The mark [5] stands for this setting: HEK293 clonal line overexpressing APOL1 G1.
[6] abbreviates: read-out: APOL1 G2 Trypanosome Rescue EC50, Trypanosoma brucei Lister 427 VSG221 with APOL1 G2 recombinant protein, 20 hours, CellTiter-Glo.

Like-named read-outs stand apart in the source and are kept apart here.

As for `CC(c1ncc(OCCN2CCC3(CC2)C(=O)Nc2ccc(Cl)cc23)cn1)S(C)(=O)=O` (single isomer, unassigned) [Compound 2, 5-chloro-1′-[2-({2-[(1S) or (1R)-1-methanesulfonylethyl]pyrimidin-5-yl}oxy)ethyl]-1,2-dihydrospiro[indole-3,4′-piperidin]-2-one], the results for the EC50 in experiment [1] (setting [3]) and in experiment [2] (setting [4]) were 346 nM and 56.3 nM, respectively.
On to `CC(c1ncc(OCCN2CCC3(CC2)C(=O)Nc2ccc(Cl)cc23)cn1)S(C)(=O)=O` (single isomer, unassigned) [Compound 3, 5-chloro-1′-[2-({2-[(1R) or (1S)-1-methanesulfonylethyl]pyrimidin-5-yl}oxy)ethyl]-1,2-dihydrospiro[indole-3,4′-piperidin]-2-one], for which the 50% effective concentration (EC50) – broadly, the concentration that produces a half-maximal response – in experiment [1] (setting [5]) was 257 nM; in experiment [2] (setting [6]) it was 92 nM.
For `CC(O)c1ncc(OCCN2CCC3(CC2)C(=O)Nc2ccc(C#N)cc23)cc1C(F)(F)F` (single isomer, unassigned) [Compound 376, 1′-[2-({6-[(1S) or (1R)-1-hydroxyethyl]-5-(trifluoromethyl)pyridin-3-yl}oxy)ethyl]-2-oxo-1,2-dihydrospiro[indole-3,4′-piperidine]-5-carbonitrile], the values for the EC50 in experiment [1] (setting [3]) and in experiment [2] (setting [6]) were 129 nM and 39.9 nM, respectively.
In the case of `CC(O)c1ncc(OCCN2CCC3(CC2)C(=O)Nc2ccc(C#N)cc23)cc1C(F)(F)F` (single isomer, unassigned) [Compound 377, 1′-[2-({6-(1S) or (1R)-1-hydroxyethyl]-5-(trifluoromethyl)pyridin-3-yl}oxy)ethyl]-2-oxo-1,2-dihydrospiro[indole-3,4′-piperidine]-5-carbonitrile], the EC50 is 172 nM in experiment [1] (setting [5]) and 97.8 nM in experiment [2] (setting [6]).
In the case of `CS(=O)(=O)C1(c2ncc(OCCN3CCC4(CC3)C(=O)Nc3ccc(C(F)F)cc34)cn2)CC1` [Compound 5, 5-(difluoromethyl)-1′-(2-{[2-(1-methanesulfonylcyclopropyl)pyrimidin-5-yl]oxy}ethyl)-1,2-dihydrospiro[indole-3,4′-piperidin]-2-one], the EC50 in experiment [1] (setting [3]) is 295 nM; in experiment [2] (setting [4]) it was 52 nM.
The corresponding values for `CS(=O)(=O)C1(c2ncc(OCCN3CCC4(CC3)C(=O)Nc3ccc(OC(F)F)cc34)cn2)CC1` [Compound 6, 5-(difluoromethoxy)-1′-(2-{[2-(1-methanesulfonylcyclopropyl)pyrimidin-5-yl]oxy}ethyl)-1,2-dihydrospiro[indole-3,4′-piperidin]-2-one] are 252 nM and 137 nM.
The corresponding values for `O=C1CCc2cc(OCCN3CCC4(CC3)C(=O)Nc3ccc(Cl)cc34)ccc2N1` [Compound 82, 5-chloro-1′-{2-[(2-oxo-1,2,3,4-tetrahydroquinolin-6-yl)oxy]ethyl}-1,2-dihydrospiro[indole-3,4′-piperidin]-2-one] are 252 nM and 113 nM.
The corresponding values for `CS(=O)(=O)C1(c2c(F)cc(OCCN3CCC4(CC3)C(=O)Nc3ccc(C#N)cc34)cc2F)COC1` [Compound 84, 1′-{2-[3,5-difluoro-4-(3-methanesulfonyloxetan-3-yl)phenoxy]ethyl}-2-oxo-1,2-dihydrospiro[indole-3,4′-piperidine]-5-carbonitrile] are 233 nM and 50 nM.
For `O=C1Nc2ccc(Cl)cc2C12CCN(CCOc1ccc3c(cnn3[C@H]3C[C@@H](O)C3)c1)CC2` [Compound 85, 5-chloro-1′-[2-({1-[(cis)-3-hydroxycyclobutyl]-1H-indazol-5-yl}oxy)ethyl]-1,2-dihydrospiro[indole-3,4′-piperidin]-2-one], the EC50 was 157 nM in experiment [1] (setting [3]) and 48.5 nM in experiment [2] (setting [4]).
The corresponding values for `O=C1Nc2ccc(Cl)cc2C12CCN(CCOc1ccc3c(cnn3[C@H]3C[C@H](O)C3)c1)CC2` [Compound 86, 5-chloro-1′-[2-({1-[(trans)-3-hydroxycyclobutyl]-1H-indazol-5-yl}oxy)ethyl]-1,2-dihydrospiro[indole-3,4′-piperidin]-2-one] are 126 nM and 38.4 nM.
On to `O=C1Nc2ccc(Cl)cc2C12CCN(CCOc1ccc3[nH]ncc3c1)CC2` [Compound 87, 5-chloro-1′-[2-(2H-indazol-5-yloxy)ethyl]-1,2-dihydrospiro[indole-3,4′-piperidin]-2-one], for which the EC50 is 281 nM in experiment [1] (setting [3]) and 95.8 nM in experiment [2] (setting [4]).
The corresponding values for `Cn1c(=O)[nH]c2cc(OCCN3CCC4(CC3)C(=O)Nc3ccc(Cl)cc34)ccc21` [Compound 88, 5-chloro-1′-{2-[(1-methyl-2-oxo-2,3-dihydro-1H-1,3-benzodiazol-5-yl)oxy]ethyl}-1,2-dihydrospiro[indole-3,4′-piperidin]-2-one] are 438 nM and 138 nM.
The corresponding values for `CS(=O)(=O)c1c(F)cc(OCCN2CCC3(CC2)C(=O)Nc2ccc(Cl)cc23)cc1F` [Compound 89, 5-chloro-1′-[2-(3,5-difluoro-4-methanesulfonylphenoxy)ethyl]-1,2-dihydrospiro[indole-3,4′-piperidin]-2-one] are 138 nM and 32.7 nM.
Turning to `CS(=O)(=O)c1c(F)cc(OCCN2CCC3(CC2)C(=O)Nc2ccc(C#N)cc23)cc1F` [Compound 90, 1′-[2-(3,5-difluoro-4-methanesulfonylphenoxy)ethyl]-2-oxo-1,2-dihydrospiro[indole-3,4′-piperidine]-5-carbonitrile], the values for the concentration giving a half-maximal response (EC50) in experiment [1] (setting [3]) and in experiment [2] (setting [4]) were 594 nM and 163 nM, respectively.
The corresponding values for `COC(=O)C1(S(=O)(=O)c2ccc(OCCN3CCC4(CC3)C(=O)Nc3ccc(Cl)cc34)cc2)CC1` [Compound 91, methyl 1-[4-(2-{5-chloro-2-oxo-1,2-dihydrospiro[indole-3,4′-piperidin]-1′-yl}ethoxy)benzenesulfonyl]cyclopropane-1-carboxylate] are 99 nM and 20.4 nM.
The corresponding values for `CC1(S(=O)(=O)c2ccc(OCCN3CCC4(CC3)C(=O)Nc3ccc(Cl)cc34)cc2)COC1` [Compound 92, 5-chloro-1′-(2-{4-[(3-methyloxetan-3-yl)sulfonyl]phenoxy}ethyl)-1,2-dihydrospiro[indole-3,4′-piperidin]-2-one] are 101 nM and 28.5 nM.
The corresponding values for `CC1(S(=O)(=O)c2ccc(OCCN3CCC4(CC3)C(=O)Nc3ccc(C#N)cc34)cc2)COC1` [Compound 93, 1′-(2-{4-[(3-methyloxetan-3-yl)sulfonyl]phenoxy}ethyl)-2-oxo-1,2-dihydrospiro[indole-3,4′-piperidine]-5-carbonitrile] are 230 nM and 56.9 nM.
As to `CS(=O)(=O)N1CCc2cc(OCCN3CCC4(CC3)C(=O)Nc3ccc(Cl)cc34)ccc2C1` [Compound 94, 5-chloro-1′-{2-[(2-methanesulfonyl-1,2,3,4-tetrahydroisoquinolin-6-yl)oxy]ethyl}-1,2-dihydrospiro[indole-3,4′-piperidin]-2-one], the results for the EC50 in experiment [1] (setting [3]) and in experiment [2] (setting [4]) were 210 nM and 129 nM, respectively.
The like results for `CN1C(=O)CCc2cc(OCCN3CCC4(CC3)C(=O)Nc3ccc(C#N)cc34)ccc21` [Compound 95, 1′-{2-[(1-methyl-2-oxo-1,2,3,4-tetrahydroquinolin-6-yl)oxy]ethyl}-2-oxo-1,2-dihydrospiro[indole-3,4′-piperidine]-5-carbonitrile] were, in that order, 457 nM and 222 nM.
The corresponding values for `CC(C)N1C(=O)CCc2cc(OCCN3CCC4(CC3)C(=O)Nc3ccc(C#N)cc34)ccc21` [Compound 96, 2-oxo-1′-(2-{[2-oxo-1-(propan-2-yl)-1,2,3,4-tetrahydroquinolin-6-yl]oxy}ethyl)-1,2-dihydrospiro[indole-3,4′-piperidine]-5-carbonitrile] are 148 nM and 53 nM.
The corresponding values for `CC(C)N1C(=O)CCc2cc(OCCN3CCC4(CC3)C(=O)Nc3ccc(Cl)cc34)ccc21` [Compound 97, 5-chloro-1′-(2-{[2-oxo-1-(propan-2-yl)-1,2,3,4-tetrahydroquinolin-6-yl]oxy}ethyl)-1,2-dihydrospiro[indole-3,4′-piperidin]-2-one] are 143 nM and 40.6 nM.
Take `CS(=O)(=O)N(CCO)c1ccc(OCCN2CCC3(CC2)C(=O)Nc2ccc(Cl)cc23)cc1` [Compound 98, N-[4-(2-{5-chloro-2-oxo-1,2-dihydrospiro[indole-3,4′-piperidin]-1′-yl}ethoxy)phenyl]-N-(2-hydroxyethyl)methanesulfonamide]: the concentration for a half-maximal effect (EC50) in experiment [1] (setting [3]) is 183 nM; in experiment [2] (setting [4]), 72.2 nM.
The like results for `O=C1CCc2cc(OCCN3CCC4(CC3)C(=O)Nc3ccc(Cl)cc34)cnc2N1[C@H]1C[C@H](O)C1` [Compound 267, 5-chloro-1′-[2-({7-oxo-8-[(trans)-3-hydroxycyclobutyl]-5,6,7,8-tetrahydro-1,8-naphthyridin-3-yl}oxy)ethyl]-1,2-dihydrospiro[indole-3,4′-piperidin]-2-one] were, in that order, 137 nM and 33.7 nM.
As for `CS(=O)(=O)C1(c2ccc(OCCN3CCC4(CC3)C(=O)Nc3ccc(Cl)cc34)cc2)CC(O)C1` (stereo not drawn) [Compound 269, 5-chloro-1′-(2-{4-[(cis) or (trans)-3-hydroxy-1-methanesulfonylcyclobutyl]phenoxy}ethyl)-1,2-dihydrospiro[indole-3,4′-piperidin]-2-one], the EC50 was 325 nM in experiment [1] (setting [5]) and 79.7 nM in experiment [2] (setting [6]).

(Values after US12344610B2, “APOL1 inhibitors and methods of use” (Maze Therapeutics, Inc., priority 2022, dated 2025).)
